Test results taken from patent US9839241B2, “Methods, devices and systems for pulmonary delivery of active agents” (priority 2014, dated 2017).
“Also recorded” adds a separate entry of the source. Read-outs that look alike come from different tables or passages of the source.

Tests used:
[1] = PK study: plasma Δ^9-THC levels after single dose inhalation from cannabis flos with the metered-dose inhaler (MDI)
Procedure: A study was conducted in order to characterize the inter-individual variability of Δ^9-THC plasma levels during the absorption phase, upon using a hand-held metered-dose MDI device configured for pulmonary delivering pre-determined amounts of the active agent Δ^9-THC from a solid substance (cannabis-derived plant substance) upon heating the substance.
Routine medications were continued throughout the trial.

[2] = cited from earlier work; for mean Cmax increase per mg Δ^9-THC: continuous blood withdrawal
chronic neuropathic pain = details: cited from earlier work; for reduction of pain intensity: Wilsey et al. 2013, vaporized 10.3 mg total available Δ^9-THC in two sessions
[3] = Analysis of residual cannabis material after vaporization in the MDI
[4] = Monitoring of adverse effects, blood pressure and heart rate after inhalation; format: in vivo, human
Procedure: (§1) The study was used to further evaluate the pharmacodynamic effect of pulmonary delivery of Δ^9-THC on pain reduction from baseline using a 10 cm visual analog scale (VAS) pain scale (0 being no pain; and 10 being worst possible pain); for monitoring adverse effects, blood pressure and heart rate, and for estimating the degree of satisfaction with the use of the MDI on a 0-10 scale.
(§2) Pain intensity reduction was assessed as a therapeutic effect by asking participants to indicate the intensity of their current pain on a 100 mm visual analog scale (VAS) between 0 (no pain) and 100 (worst possible pain) at baseline (prior to the inhalation) and at 20 and 90 minutes following the pulmonary delivery of the pharmaceutically active agent from cannabis. Adverse effects, in the form of psychotropic symptoms, were recorded at 5, 15, 30, 60 and 120 minutes post pulmonary delivery, along with those spontaneously reported by the participants. Adverse effects were evaluated according to standardized criteria in terms of severity, frequency, duration and relationship to the study's active agent. Adverse effects were graded using the NIH Division of AIDS table for scoring severity of adult adverse experiences. Blood pressure and pulse rate were also recorded before, during and after the pulmonary delivery.
Results are reported herein as mean values±1 standard deviation (±SD). […]

neuropathic pain = test: VAS pain intensity after pulmonary delivery of Δ^9-THC with the MDI; format: in vivo, human
Procedure: as §1
The study was conducted at the Pain Research Unit of Rambam Health Care Campus in Haifa, Israel.
as §2
Results are reported herein as mean values±1 standard deviation (±SD). For each one of the measured effects (VAS pain intensity, systolic and diastolic blood pressure, heart rate and satisfaction score), the mean and 95% confidence interval (CI) at different time points was plotted. Differences between VAS pain intensity values and satisfaction scores, before and after inhalation, were tested by two-tailed paired Student t-test. Blood pressure and heart rate values were compared among different time points by one-way ANOVA. P-values <0.05 were accepted as significant. All statistical analyses were performed using Minitab Statistical Software, version 16.

Compound: CCCCCc1cc(O)c2c(c1)OC(C)(C)[C@@H]1CCC(C)=C[C@@H]21 [Δ^9-THC, Δ9-tetrahydrocannabinol]
- inter-individual variability of Cmax (coefficient of variation) ([1]; MDI device): 25.3%
- AUC ([1]; human, plasma, inhaled or intranasal, 3.08 mg, AUC (Mean), mean of 8 participants, same single dose inhalation): 10.1 ng·h/mL
- Cmax ([1]; human, plasma, inhaled or intranasal, 3.08 mg, Cmax (Mean), mean of 8 participants, same single dose inhalation): 38 ng/mL
- Tmax ([1]; human, plasma, inhaled or intranasal, 3.08 mg, Tmax (Mean), mean of 8 participants, same single dose inhalation): 3 min
- AUC(0-inf) ([1]; human, plasma, inhaled, 3.08 mg): 10.1 ng·h/mL
- time of first detection in blood sample ([1]; post-inhalation, six patients without residual plasma THC at baseline): 1 min
- increase of Cmax per mg of Δ^9-THC available in the cannabis used (mean) ([1]; pulmonary delivery method described herein (MDI)): 12.3 ng/ml/mg Δ^9-THC
- plasma concentration profile over time ([1]; pulmonary delivery with the MDI): rapid absorption, followed by bi-phasic decline in plasma concentration over time
- mean Cmax increase per mg Δ^9-THC ([2]; after the first puff of a 1.75% Δ^9-THC cigarette): 3.54 ng/ml per mg Δ^9-THC
- mean Cmax increase per mg Δ^9-THC ([2]; after the first puff of a 3.55% Δ^9-THC cigarette): 4.28 ng/ml per mg Δ^9-THC
- plasma Cmax levels per mg of Δ^9-THC administered ([2]; intravenous administration (Ohlsson et al. 1980)): 43.8 ng Δ^9-THC/ml plasma
- inter-individual variability of Cmax (coefficient of variation) ([2]; oral administration): 42-115%
- inter-individual variability of Cmax (coefficient of variation) ([2]; oromucosal route of delivery): 59-67%
- inter-individual variability of Cmax (coefficient of variation) ([2]; smoking cigarettes): 32-115%
- inter-individual variability of Cmax (coefficient of variation) ([2]; vaporizer (Abrams)): 47-85%
- mean Cmax elevation (chronic neuropathic pain; Ware et al. 2010, single smoke inhalation of 25±1 mg cannabis, 9.4% Δ^9-THC, three times a day for 5 days): 45 ng/mL
- reduction of neuropathic pain (plateau, ceiling effect) (chronic neuropathic pain; Wilsey et al. 2008, smoking 19 mg or 34 mg total available Δ^9-THC in 3 doses): 45%
- reduction of pain intensity (chronic neuropathic pain; 3 hours): 31%
- reduction of pain intensity (chronic neuropathic pain; 5 hours): 25%
- cannabinol (product of THC oxidation) in residues [3]: no increase of cannabinol
- time to full recovery from light headedness ([4]; all the other patients, post-inhalation): ≤ 30 min
- adverse effects (overall) ([4]; single dose inhalation with MDI, listed as THC): minimal, reversible and well tolerated; also recorded: minimal, reversible and receded rapidly
- decrease of VAS pain intensity from baseline (neuropathic pain; 20 minutes after inhalation, baseline 7.5±1.4, 95% CI [2.1, 4.9], P=0.001): 3.4 points
- VAS pain intensity versus baseline (neuropathic pain; 90 minutes post-dosing): virtually identical results as at baseline
- time to reversal of pain reduction (neuropathic pain; single inhalation, 3.08±0.02 mg total available Δ^9-THC): ≤ 90 min
